The assay has as its system NCI-H929 complex spheroids, viability % test/control. Kind of assay: Anticancer human tumor NCI-H929 cell line growth inhibition [RAS].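 As to all read-outs here: compound exposure lasted seven days before viability was read.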 Particulars: for viability, T/C: stronger effect = lower value. From the text:
RAS pathway inhibitors in Combinations in Complex Spheroids
A high-throughput screen of multi-cell type tumor spheroids was designed to identify active combinations of RAS pathway inhibitors and targeted small molecules. Complex spheroids include a stromal component modeled by human endothelial cells (HUVEC) and fibroblasts modeled by human mesenchymal stem cells (MSCs). The concentration ranges selected for each drug and investigational agent were based upon clinically achievable concentrations if the clinical Cmax of the agent was known.
Compounds. The drugs and investigational agents: abemaciclib (NSC768073), cobimetinib (NSC768068), divarasib (GDC6063, NSC841802), docetaxel (NSC628503), GDC-1971 (RLY-1971, NSC841576), gemcitabine (NSC613327), inavolisib (NSC800729), ipatasertib (NSC767898), KB-0742 (NSC834161), MRTX-1133 (NSC836407), osimertinib (NSC779217), RMC-4630 (NSC839698), RMC-6236 (NSC851965), RMC-6291 (NSC852671), Ro-3306 (NSC812927), sapanisertib (NSC764658), SN-38 (NSC673596), staurosporine (NSC755774), SY5609 (NSC837396), and tovorafenib (DAY101, NSC766906), were obtained from the National Cancer Institute (NCI) Developmental Therapeutics Program Chemical Repository. The FDA-approved anticancer drug set is available from the NCI Developmental Therapeutics Program. […] The stock solutions were prepared in dimethyl sulfoxide (DMSO, Sigma-Aldrich, St. Louis, MO, cat. D2650) at 800-fold the tested concentration and stored at -70 degrees C prior to their use. All drugs and investigational agents were tested over a range starting from a high concentration at or near the clinical Cmax and decreasing in half-log increments. If the clinical Cmax for an agent had not been determined, the highest concentration tested was 10 microM.
Cell Culture. All cells were maintained in an incubator at 37 degrees C and 5% CO2 with 95% humidity. The PDC lines were cultured according to standard operating procedures established by the NCI PDMR. All PDCs were thawed and cultured in Matrigel-coated flasks prepared with a working solution of 1X Ham's F-12 nutrient mix, without supplementation (Invitrogen, Waltham, MA, cat. 11765054), 100 U/mL penicillin-streptomycin (Invitrogen, cat. 15140122), and 2.5% Matrigel (Corning Inc., Corning, NY, cat. 354248) for the first three passages. The 362531-283-R-J2-PDC and 782815-120-R-J1-PDC lines were cultured in 6C/Colon 1B media, which includes advanced DMEM/F-12 (Thermo Fisher Scientific, cat. 12634028), 10 mM HEPES (Thermo Fisher Scientific, cat. 15630080), 1X GlutaMAX supplement (Thermo Fisher Scientific, cat. 35050061), 0.1 mg/mL primocin (InvivoGen, San Diego, CA, cat. ant-pm-2), 10% defined fetal bovine serum, heat inactivated (HyClone Laboratories Inc., Logan, UT, cat. SH30070.03HI), 50% L-WRN conditioned media (ATCC, cat. CRL-3276), 1.25 mM N-Acetyl-L-cysteine (Sigma-Aldrich, cat. A9165), 10 mM nicotinamide (Sigma-Aldrich, cat. N0636), 1X B-27 supplement (Thermo Fisher Scientific, cat. 17504044), 1X N-2 supplement (Thermo Fisher Scientific, cat. 17502048), 50 ng/mL human EGF (Thermo Fisher Scientific, cat. PHG0311), and 10 microM Y-27632 dihydrochloride (Tocris Bioscience, cat. 1254). The K12877-001-R-J1-PDC line was cultured in 6I media, which includes all 6C/Colon 1B media plus 10 ng/mL human FGF-10 (PeproTech, cat. 100-26), 1 ng/mL human FGF-2 (PeproTech, cat. 100-18B), 1 µM prostaglandin E2 (Tocris Bioscience, cat. 2296), […] hydrocortisone (Sigma-Aldrich, cat. H4001), and […] bovine insulin (Sigma-Aldrich, cat. I6634). The K86415-001-R-J1-PDC line was cultured in 6D media, which includes all 6C/Colon 1B media components minus the L-WRN conditioned media. The 485176-168-R4-J1-PDC was cultured in PANC media, which includes all 6C/Colon 1B media plus 100 ng/mL human FGF-10 (PeproTech, cat. 100-26), 500 nM SB-431542 (Selleckchem, cat. S1067), and 10 nM gastrin (Tocris Bioscience, cat. 3006). […]

“And” between values parts separate entries of the source, which are not always exact repeats. Identical values can stand only once. Where only a bound is given, the exact number is not on record here.

As usually defined, the viability, T/C is the ratio of treated to control. For orientation: IC50 means the concentration needed to halve the response being measured.

`C=CC(=O)N1CCN(c2nc(OCC3CCCN3C)nc3c(F)c(-c4nc(N)cc(C)c4C(F)(F)F)c(Cl)cc23)C(C)C1` (stereo not drawn): the viability, T/C runs as follows: (compound 0.00316 µM) 102% [middle of 12 runs]; (compound 0.01 µM, compound 0.0316 µM) 103%; (compound 0.01 µM, compound 0.1 µM) 105%; (compound 0.01 µM, compound 0.316 µM) 101%; (compound 0.01 µM, compound 1 µM) 106%; (compound 0.01 µM) 101% [middle of 13 runs]. In addition, the viability, T/C was 94.3% (compound 0.0316 µM, compound 0.00316 µM); 101% (compound 0.0316 µM, compound 0.01 µM); 101% (compound 0.0316 µM, compound 0.1 µM); 108% (compound 0.0316 µM, compound 0.316 µM); 109% (compound 0.0316 µM, compound 1 µM); 103% [middle of 13 runs] (compound 0.0316 µM). The viability, T/C was 98.2% (compound 0.1 µM, compound 0.00316 µM); 104% (compound 0.1 µM, compound 0.01 µM); 99.5% (compound 0.1 µM, compound 0.0316 µM); 109% (compound 0.1 µM, compound 0.316 µM); 111% (compound 0.1 µM, compound 1 µM); 100% [middle of 12 runs] (compound 0.1 µM). Moreover, the viability, T/C (compound 0.316 µM, compound 0.00316 µM) was 102%; the viability, T/C (compound 0.316 µM, compound 0.01 µM) is 105%; the viability, T/C (compound 0.316 µM, compound 0.0316 µM) was 106%; the viability, T/C (compound 0.316 µM, compound 0.1 µM) was 102%; the viability, T/C (compound 0.316 µM, compound 1 µM) was 113%; the viability, T/C (compound 0.316 µM) was 100% [middle of 13 runs]. The viability, T/C (compound 1 µM, compound 0.00316 µM) is 107%; the viability, T/C (compound 1 µM, compound 0.01 µM) was 104%; the viability, T/C (compound 1 µM, compound 0.0316 µM) is 105%; the viability, T/C (compound 1 µM, compound 0.1 µM) is 109%; the viability, T/C (compound 1 µM, compound 0.316 µM) is 110%; the viability, T/C (compound 1 µM) was 104% [middle of 13 runs]. In addition, the IC50 by setting is: (compound alone, run of 09/09/2024) over 1000 nM; (curve of compound) over 1000 nM.
In the case of `C=CC(=O)Nc1cc(Nc2nccc(-c3cn(C)c4ccccc34)n2)c(OC)cc1N(C)CCN(C)C`, the viability, T/C (compound 0.00316 µM) was 103% (2×) and 109% and 105%; the viability, T/C (compound 0.01 µM) is 99.4% [middle of 4 runs]; the viability, T/C (compound 0.0316 µM) is 107% [middle of 4 runs]; the viability, T/C (compound 0.1 µM) was 99% [middle of 4 runs]; the viability, T/C (compound 0.316 µM) was 105% [middle of 4 runs]; the viability, T/C (compound 1 µM) was 105% [middle of 4 runs]. The IC50 (curve of compound) was over 1000 nM.
Consider `CC(C)n1nc(-c2ccc3oc(N)nc3c2)c2c(N)ncnc21`, for which the viability, T/C reads like this: (compound 0.000316 µM) 105% [middle of 4 runs]; (compound 0.001 µM) 104% (2×) and 99.9% and 103%; (compound 0.00316 µM) 110% [middle of 4 runs]; (compound 0.01 µM) 99% and 112% (2×) and 109%; (compound 0.0316 µM) 52.1% and 119% (2×) and 94.3%; (compound 0.1 µM) 9.59% [middle of 4 runs]. The IC50 (curve of compound) was 33.1 nM and 62.7 nM and 55.5 nM.
For `CCN1CCN(Cc2ccc(Nc3ncc(F)c(-c4cc(F)c5nc(C)n(C(C)C)c5c4)n3)nc2)CC1`, the viability, T/C runs as follows: (compound 0.00316 µM) 106% [middle of 4 runs]; (compound 0.01 µM) 101% (2×) and 100% and 102%; (compound 0.0316 µM) 108% [middle of 4 runs]; (compound 0.1 µM) 107% (2×) and 98.7% and 108%; (compound 0.316 µM) 117% (2×) and 102% and 115%. In addition, the 50% inhibitory concentration (IC50) (curve of compound) was > 1000 nM and 774 nM and 695 nM.
Regarding `CCc1c2c(nc3ccc(O)cc13)-c1cc3c(c(=O)n1C2)COC(=O)[C@]3(O)CC`, the viability, T/C was 110% and 80.3% and 104% (2×) (compound 0.000949 µM); 15.8% [middle of 4 runs] (compound 0.003 µM); 1.38% [middle of 4 runs] (compound 0.00949 µM); 1.43% [middle of 4 runs] (compound 0.03 µM); 1.87% [middle of 4 runs] (compound 0.0949 µM); 1.15% [middle of 4 runs] (compound 0.3 µM). For the same compound, where the note is “curve of compound”, the concentration for half-maximal inhibition (IC50) was 1.97 nM [middle of 4 runs].
As to `CCn1c(-c2cc(N3CCN(C)CC3)cnc2C(C)OC)c2c3cc(ccc31)-c1csc(n1)CC(NC(=O)C1CC1C)C(=O)N1CCCC(N1)C(=O)OCC(C)(C)C2` (stereo not drawn), the viability, T/C runs as follows: (compound 0.000949 µM) 102% [middle of 8 runs]; (compound 0.003 µM) 101% [middle of 8 runs]; (compound 0.00949 µM) 116% [middle of 8 runs]; (compound 0.0949 µM) 5.7% [middle of 8 runs]; (compound 0.3 µM) 3.64% [middle of 8 runs]. Moreover, the half-inhibitory concentration (IC50) (compound alone, run of 08/26/2024) was 31.5 nM [middle of 8 runs].
Regarding `CCn1c(-c2cccnc2C(C)OC)c2c3cc(ccc31)N1CCOC(CC(NC(=O)C(C(C)C)N(C)C(=O)C3(F)CCN(C(=O)C#CC(C)(C)N(C)C)CC3)C(=O)N3CCCC(N3)C(=O)OCC(C)(C)C2)C1` (stereo not drawn), the viability, T/C (compound 0.000949 µM) is 107% [middle of 8 runs]; the viability, T/C (compound 0.003 µM) is 106% [middle of 8 runs]; the viability, T/C (compound 0.00949 µM) is 106% [middle of 8 runs]; the viability, T/C (compound 0.03 µM) is 104% [middle of 8 runs]; the viability, T/C (compound 0.0949 µM) was 99.9% [middle of 8 runs]; the viability, T/C (compound 0.3 µM) is 98.9% [middle of 8 runs]. Moreover, the IC50 (compound alone, run of 08/20/2024) is over 300 nM.
Consider `Nc1ccn(C2OC(CO)C(O)C2(F)F)c(=O)n1` (stereo not drawn), for which the viability, T/C by setting is: (compound 0.00316 µM) 106% [middle of 4 runs]; (compound 0.0316 µM) 0.89% (2×) and 1.85% and 1.95%; (compound 0.1 µM) 1.62% [middle of 4 runs]; (compound 0.316 µM) 1.71% [middle of 4 runs]; (compound 1 µM) 1.37% [middle of 4 runs]. Further, the concentration for half-maximal inhibition (IC50) (curve of compound) was 18.3 nM [middle of 4 runs].
On to `O=C(c1ccc(F)c(F)c1Nc1ccc(I)cc1F)N1CC(O)([C@@H]2CCCCN2)C1`, for which the viability, T/C is 105% [middle of 4 runs] (compound 0.00316 µM), 95.4% [middle of 4 runs] (compound 0.01 µM), 96.1% [middle of 4 runs] (compound 0.1 µM) and 115% [middle of 4 runs] (compound 0.316 µM). For the same compound, under “curve of compound”, the half-inhibitory concentration (IC50) was > 1000 nM and 672 nM and 724 nM.

The values are drawn from PubChem BioAssay AID2060884 (Molecular Pharmacology Branch, DTP, NCI, 2025).
